One test addresses T1, DabiOBP5 (Dioryctria abietella, UniProt A0A8E6HS34).
T1 sequence (A0A8E6HS34 19-139): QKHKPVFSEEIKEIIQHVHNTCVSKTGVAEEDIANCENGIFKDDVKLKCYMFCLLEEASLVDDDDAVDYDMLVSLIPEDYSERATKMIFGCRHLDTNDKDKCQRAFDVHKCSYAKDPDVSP
As to the kind of experiment: Competitive fluorescence binding assay with 1-NPN probe, recombinant DabiOBP5. The settings on record: for OBP5 F.D. (%) fluorescence displacement percent / inhibition at 20 µM: ligand at 20 μM, DabiOBP5/1-NPN each 2 μM, Tris-HCl pH 7.4, NB = no binding; for inhibition at 20 µM: read-out: OBP5 F.D. (%) fluorescence displacement percent; for Ki: competitive displacement of 1-NPN, three replicates, mean ± SE, read-out: OBP5 Ki (dissociation constant). An excerpt:
In the binding assays, we selected 100 compounds derived from host/non-host plants and man-made insecticides widely used for the control of lepidopteran pests, representing 88 general odorants (21 esters, 21 alcohols, 14 aldehydes, 13 alkenes, seven ketones, 11 alkanes and one acid) and 12 insecticides. These compounds and N-phenyl-1-naphthylamine (1-NPN) were purchased from Aladdin and Sigma-Aldrich, with the highest available purity. […] The concentrations of the work solution for each ligand and 1-NPN were set at 1 mM.
In order to measure the binding properties of the DabiOBPs to the 100 ligands, competitive binding assays were performed on a RF5301PC fluorescence spectrophotometer (Shimadzu, Japan). The concentrations of DabiOBPs and the fluorescent probe 1-NPN were set at 2 μM. […] Accordingly, binding constants (K1-NPN) of the DabiOBPs and 1-NPN were calculated using GraphPad Prism 7 (GraphPad Software Inc., San Diego, CA). […] For the ligands replacing over a half of 1-NPN fluorescence (50%) at 20 μM, three replicates were performed. The excitation wavelength was set at 337 nm and the emission peaks were recorded at around 400 nm.

In a further test the test system is DabiOBP14. The test is classed as binding, Dioryctria abietella. The conditions noted are these: for Ki: competitive displacement of 1-NPN, three replicates, mean ± SE, read-out: OBP14 Ki (dissociation constant). As to the method:
In the binding assays, we selected 100 compounds derived from host/non-host plants and man-made insecticides widely used for the control of lepidopteran pests, representing 88 general odorants (21 esters, 21 alcohols, 14 aldehydes, 13 alkenes, seven ketones, 11 alkanes and one acid) and 12 insecticides. These compounds and N-phenyl-1-naphthylamine (1-NPN) were purchased from Aladdin and Sigma-Aldrich, with the highest available purity. They were first diluted into 100 mM, using methanol (HPLC purity grade, ≥99.9%) as a stock solution. The concentrations of the work solution for each ligand and 1-NPN were set at 1 mM.
In order to measure the binding properties of the DabiOBPs to the 100 ligands, competitive binding assays were performed on a RF5301PC fluorescence spectrophotometer (Shimadzu, Japan). The concentrations of DabiOBPs and the fluorescent probe 1-NPN were set at 2 μM. The binding of DabiOBPs to 1-NPN in 20 mM Tris-HCl buffer (pH 7.4) was measured by adding final concentrations of 2–16 μM 1-NPN. Accordingly, binding constants (K1-NPN) of the DabiOBPs and 1-NPN were calculated using GraphPad Prism 7 (GraphPad Software Inc., San Diego, CA). The binding of the DabiOBPs to various ligands was conducted by adding different concentrations of ligands (2, 4, 6, 8, 12, 16 and 20 μM) into the DabiOBP5/1-NPN (each 2 μM) or DabiOBP14/1-NPN (each 2 μM) mixtures. For the ligands replacing over a half of 1-NPN fluorescence (50%) at 20 μM, three replicates were performed. The excitation wavelength was set at 337 nm and the emission peaks were recorded at around 400 nm. The dissociation constants (Ki) of the tested ligands to DabiOBPs were computed, using the equation: Ki = [IC50]/(1 + [1-NPN]/K1-NPN), where [1-NPN] was the free concentration of 1-NPN and IC50 was the concentration of ligands replacing 50% of 1-NPN fluorescence.

The mark [1] stands for this setting: ligand at 20 μM, DabiOBP14/1-NPN each 2 μM, Tris-HCl pH 7.4, NB = no binding.

The text below walks through data of article PMC9781003, “Two Antenna-Enriched Odorant Binding Proteins in Dioryctria abietella Tuned to General Odorants and Insecticides” (Insects, 2022).

In general, Ki refers to a measure of affinity in units of concentration, obtained from inhibition or displacement.

Where two headings read alike, the source gives them in different places.

For `CCC/C=C\C=O` [Z2-Hexenal], the “OBP5 F.D. (%) fluorescence displacement percent” value on DabiOBP5 was determined as 39.42%. For the same compound, the “OBP14 F.D. (%) fluorescence displacement percent” value with DabiOBP14 (setting [1]) stood at 33.09%.
In the same order, the values of `CC/C=C\CCO` [Z3-Hexen-1-ol] are 28.57% and 24.52%.
For `CC/C=C\CCOC(C)=O` [Z3-Hexenyl acetate], the “OBP5 F.D. (%) fluorescence displacement percent” value at DabiOBP5 is 27.72%. Besides, in the test with DabiOBP14 (setting [1]), the “OBP14 F.D. (%) fluorescence displacement percent” value worked out at 31.25%.
For the compound `CC/C=C\CCOC(=O)CCC` [Z3-Hexenyl butyrate], the “OBP5 F.D. (%) fluorescence displacement percent” value at DabiOBP5 was found to be 20.80%. In addition, in the test with DabiOBP14 (pH 7.4), the “OBP14 F.D. (%) fluorescence displacement percent” value was found to be 26.39%.
Regarding `CC1=CC[C@H](C(C)C)C=C1` [α-Phellandrene], the inhibition at 20 µM at DabiOBP5 came to 37.4%. For the same compound, the “OBP14 F.D. (%) fluorescence displacement percent” value in the test with DabiOBP14 (setting [1]) was found to be 36.07%.
On the same counts, the results for `CC1=CCC2CC1C2(C)C` (stereo not drawn) [α-Pinene] are 25.1% and 29.24%.
Take `CC1=CC=C(C(C)C)CC1` [α-Terpinene]: the inhibition at 20 µM on DabiOBP5 is 35.1%. The “OBP14 F.D. (%) fluorescence displacement percent” value with DabiOBP14 (setting [1]) is given as 27.93%.
For `CC1=CC[C@@H](C(C)(C)O)CC1` [α-Terpineol], the inhibition at 20 µM at DabiOBP5 was determined as 33.9%. Moreover, the “OBP14 F.D. (%) fluorescence displacement percent” value with DabiOBP14 (setting [1]) is given as 30.28%.
For `CC1=C(C=O)C(C)(C)CCC1` [β-Cyclocitral], the “OBP5 F.D. (%) fluorescence displacement percent” value on DabiOBP5 is 32.90%. The “OBP14 F.D. (%) fluorescence displacement percent” value in the test on DabiOBP14 (setting [1]) is 32.77%.
On to `CC(=O)/C=C/C1=C(C)CCCC1(C)C` [β-Ionone], for which the Ki is under 13 µM on DabiOBP5 (listed as β-ionone), 9.11 ± 1.03 µM on DabiOBP5, under 13 µM at DabiOBP14 (listed as β-ionone) and 8.39 ± 1.04 µM at DabiOBP14. Further, the inhibition at 20 µM at DabiOBP5 was found to be 59.5%. Further, the “OBP14 F.D. (%) fluorescence displacement percent” value in the test with DabiOBP14 (setting [1]) was 62.86%.
As to `CC1=CCC(C(C)C)=CC1` [γ-Terpinene], the inhibition at 20 µM at DabiOBP5 came out at 28.2%. Moreover, the “OBP14 F.D. (%) fluorescence displacement percent” value in the test on DabiOBP14 (setting [1]) is listed as 24.46%.
For the compound Abamectin, on DabiOBP5, the “OBP5 F.D. (%) fluorescence displacement percent” value was found to be 24.16%. Besides, the “OBP14 F.D. (%) fluorescence displacement percent” value with DabiOBP14 (setting [1]) worked out at 4.33%.
On the same counts, the results for Farnesene are 40.68% and 17.77%.
